Measurements: patent EP0717995A2, “Cell degeneration suppressing and organ toxicity reducing agent” (SANWA KAGAKU KENKYUSHO CO., LTD., priority 1994, dated 1996)
Where two headings read alike, the source gives them in different places.

Experiments:
Format in all cases: in vivo
rats of 10 months of age = test system: rats of 10 months of age
Procedure: Using rats of 10 months of age (8 to 9 animals per 1 group), 0.5 g/kg of carbon tetrachloride was orally administered as a hepatic toxicity substance to increase the serum GOT level to 500 KARMEN units or more after 24 hours of the administration, simultaneously carrying out oral administration of (1) indomethacin (5 mg/kg) or (2) tetracycline (10 mg/kg) as a pharmaceutical drug having hepatic toxicity, 3 times on every other day.
In the inventive substance-treated group, the sulfatide composition described in Composition Production Example (2 mg/kg as sulfatide) was orally administered simultaneously with the pharmaceutical drug having hepatic toxicity.
The GOT enzyme released in blood caused by hepatocyte destruction was measured 12 hours after completion of the drug administration, and the liver was extracted to carry out histological tissue examination.

[1] = test system: spontaneous nephritis in MRL/1 mice; assay: Preventive action against spontaneous nephritis in MRL/1 mice (urinary protein, blood urea nitrogen); details: male MRL/1 mice, positive (urinary protein 100 mg/dl or more) / survived animals
Procedure: Protective effect of the pharmaceutical preparation of the present invention against spontaneous nephritis in MRL/1 mice was examined (protective effect on functional reduction due to aging).
Each test sample of 1 to 10 mg/kg mixed with feed was orally administered to male MRL/1 mice of 6 weeks of age (15 animals per 1 group) twice a week for 12 weeks. During the administration period, urinary protein was measured once a week to examine positive ratio in each week of age by defining an individual showing a urinary protein level of 100 mg/dl or more as positive. Also, blood urea nitrogen was measured on the next day of the final administration to carry out serologic biochemical evaluation of the action of the compound of the present invention against nephritis, together with histopathological evaluation.

[2] = test system: mouse hepatitis virus (MHV); assay: Interferon enhancer effect in mice infected with mouse hepatitis virus (survival); details: ICR mice, MHV Friend strain 2 LD50 i.p.; oral sulfatide used simultaneously with IFN-α i.p., once a day for 3 days
Procedure: Synergetic effect of the simultaneous use of interferon-α (IFN-α) and the substance of the present invention, sulfatide, on mice infected with mouse hepatitis virus (MHV)
A total of 10 ICR mice were used in one group, and intraperitoneal administration of mouse IFN-α and oral administration of […] were carried out once a day for 3 days. Just before the administration on the second day, MHV Friend strain was inoculated into the abdominal cavity in a 2 LD₅₀ equivalent dose, and conditions of the animals were observed until 14 days thereafter to calculate survival ratio.

[3] = test system: herpes simplex type 1 virus (HSV-1); assay: Interferon enhancer effect in mice infected with herpes simplex type 1 virus (survival); details: BALB/c mice, HSV-1 MIYAMA strain 10 LD50; oral sulfatide for 5 days together with 4 × 10⁴ IU/kg IFN-α i.p.
Procedure: Synergetic effect of the simultaneous use of IFN-α and sulfatide on mice infected with herpes simplex type 1 virus (HSV-1)
A total of 10 BALB/c mice were used in one group and infected with a 10 LD₅₀ equivalent dose of HSV-1 MIYAMA strain. Intraperitoneal administration of IFN-α was carried out on the day before the inoculation of HSV-1 and just after the inoculation, and oral administration of sulfatide was carried out continuously for 5 days starting on the day before the HSV-1 inoculation until the fourth day after the inoculation. Conditions of the animals were observed until 20 days after the HSV-1 infection to calculate survival rate.

[4] = dose 2 mg/kg oral in feed twice a week from 6 weeks of age
[5] = dose 1 mg/kg oral in feed twice a week from 6 weeks of age

Compound: COc1ccc2c(c1)c(CC(=O)O)c(C)n2C(=O)c1ccc(Cl)cc1 [indomethacin, reference compound]
- Changes in GOT, 12 hrs after Completion of Drug Administration (rats of 10 months of age; group a): carbon tetrachloride + indomethacin (5 mg/kg oral, 3 times on every other day), no sulfatide): 1054 ± 31.2 KARMEN units

Compound: CCCCCCCCCCCCCCCCOCC(COC1OC(CO)C(O)C(OS(=O)(=O)O)C1O)OC(=O)CCCCCCCCCCCCCCC [seminolipid, 3-O-(β-D-Galactopyranosyl 3-sulfate)-2-O-hexadecanoyl-1-O-hexadecyl-L-glycerol]
- Changes in positive urinary protein, Weeks of Age 16 [1, 4]: 3/15
- Changes in positive urinary protein, Weeks of Age 17 [1, 4]: 4/15
- Changes in positive urinary protein, Weeks of Age 18 [1, 4]: 8/15

Compound: III³ II³ SO₃ Ge3Cer [SB2]
- Changes in positive urinary protein, Weeks of Age 16 [1, 4]: 4/15
- Changes in positive urinary protein, Weeks of Age 17 [1, 4]: 5/15
- Changes in positive urinary protein, Weeks of Age 18 [1, 4]: 10/15

Compound: II³ SO₃ Lac Cer [SM3]
- Changes in positive urinary protein, Weeks of Age 16 [1, 4]: 2/15
- Changes in positive urinary protein, Weeks of Age 17 [1, 4]: 4/15
- Changes in positive urinary protein, Weeks of Age 18 [1, 4]: 8/15

Compound: IV³ SO₃ II³ SO₃ Ge4Cer [SB1a]
- Changes in positive urinary protein, Weeks of Age 16 [1, 4]: 5/15
- Changes in positive urinary protein, Weeks of Age 17 [1, 4]: 7/15
- Changes in positive urinary protein, Weeks of Age 18 [1, 4]: 10/15

Compound: sialyl Lewis A
- Changes in positive urinary protein, Weeks of Age 16 [1, 5]: 3/15
- Changes in positive urinary protein, Weeks of Age 17 [1, 5]: 5/14
- Changes in positive urinary protein, Weeks of Age 18 [1, 5]: 9/14

Compound: sialyl Lewis X
- Changes in positive urinary protein, Weeks of Age 16 [1, 5]: 3/15
- Changes in positive urinary protein, Weeks of Age 17 [1, 5]: 4/15
- Changes in positive urinary protein, Weeks of Age 18 [1, 5]: 8/15

Compound: sulfatide
- Changes in positive urinary protein, Weeks of Age 16 [1, 4]: 2/15
- Changes in positive urinary protein, Weeks of Age 17 [1, 4]: 5/15
- Changes in positive urinary protein, Weeks of Age 18 [1, 4]: 9/15
- Changes in GOT, 12 hrs after Completion of Drug Administration (rats of 10 months of age; group c): carbon tetrachloride + indomethacin (5 mg/kg) + sulfatide composition (2 mg/kg as sulfatide, oral)): 469 ± 61.5 KARMEN units
- Changes in GOT, 12 hrs after Completion of Drug Administration (rats of 10 months of age; group d): carbon tetrachloride + tetracycline (10 mg/kg) + sulfatide composition (2 mg/kg as sulfatide, oral)): 439 ± 30.5 KARMEN units
- Changes in GOT, 12 hrs after Completion of Drug Administration (rats of 10 months of age; group e): carbon tetrachloride + sulfatide composition (2 mg/kg as sulfatide, oral)): 128 ± 48.7 KARMEN units
- effect of IFN-α on average survival days [2]: further increased significantly in a dose dependent fashion
- average survival days [3]: significantly effective in dose-dependently prolonging average survival days
